For series [1], the system named is mice. The experiment in a line: In vivo antibody production assay (humoral response to BSA, ELISA). As for the experimental part: Immunity mice were primed with antigen by an intraperitoneal injection of BSA as a T-dependent antigen. Briefly, BSA was resuspended in PBS (pH 7.2) and emulsified in the same volume of complete Freund's adjuvant (CFA). 30 ug BSA in […] PBS was given to each mouse. Four groups of ten mice were immunized. • Group 1: mice were injected i.p. with BSA alone with emulsified in (CFA) Group: Ag. • Group 2: mice were injected i.p. with BSA plus BGO 136 (400 mM) in […] PBS, emulsified in (CFA) or erythrosin B (0.25 g/Kg) • Group 3: mice were injected i.p. with BSA plus BGO 136 (800 mM) in […] PBS, emulsified in (CFA) or erythrosin B (0.5 g/Kg) • Group 4: mice were treated with BSA in presence of the inhibitor emulsified in (CFA). These mice received various i.p. doses of BGO 136 400 mM in 0.1 ml of normal PBS or erythrosin B 0.25 g/Kg, 2 doses/week are given as a maintenance dose. (group named DM=maintenance dose)
These initial immunizations (i.p.) were followed by two subsequent immunizations with emulsions of BSA alone or in presence of BGO136 400 mM or 800 mM, in incomplete Freund's adjuvant. Five days after each immunization, blood was collected from each animal, sera was analysed by an ELISA assay.
Flat-bottomed microtiter plate were coated with BSA (5 ug/ml) in NaHCO3/Na2CO3 50 mM (pH 9.6) at 37° C. for 2 h. Plates were washed three times with (PBS buffer, pH 7.4, 0.5 ml/L Tween-20) and then blocked with 400 ul of milk per well overnight, at 4° C. Diluted sera specimens were added (100 ul/well) and incubated for 2 h at 37° C. After thorough washing, wells were incubated with 100 ul of goat-anti-mouse IgG conjugated with peroxydase for 2 h at 37° C. followed by several washes. TMB substrate solution (100 ul/well), (42 mM TMB in DMSO, 0.1 M citric acid, Na2HPO4 0.2 M and H2O2 30%) was added. Color development was allowed to proceed for approximately 15 to 30 min, at room temperature. Reaction was terminated by adding 30 ul of 4N H2SO4. Optical density was read at 450 nm.

The test system of a further series is Jurkat cells. The experiment in a line: Cell growth and proliferation of Jurkat cell lines. Format: cell-based, human. To be noted: inhibitor added at day 0; cell counts on day 5. As for the experimental part: T cell Jurkat is an acute T cell leukemia obtained from the peripheral blood of human. It was purchassed from ATCC and was grown and maintained in RPMI™. 1640 medium containing 10% FBS, 2 mM L-glutamine adjusted to contain 1.5 g/L sodium bicarbonate, 4.5 g/L glucose, 10 mM HEPES and 1.0 mM sodium pyruvate. To evaluate the effect of the different inhibitors of NTPDases on the growth of Jurkat cells, BGO 136, erythrosin, 8 Bus ATP, AMP and β-γ-Me ATP were added in the RPMI™ 1640 medium in presence of cells at day=0. Cells counts and viability of cells were determined on day=5.

Series [2] relates to NTPDase. As to the kind of experiment: NTPDase assay on intact human peripheral blood lymphocytes (PBL). The series is classed as biochemical. As for the experimental part:
Human lymphocytes were obtained from peripheral venous blood of normal and healthy medication-free volunteers. Fresh blood collected in EDTA glass tubes was layered into Histopaque™-1077 (a solution of Ficoll™ and sodium diatrizoate adjusted to a density of 1.077, Sigma, USA) and centrifuged at 400 g for exactly 30 min, at room temperature. During centrifugation, erythrocytes and granulocytes were aggregated by Ficoll™ and rapidly sedimented, whereas lymphocytes remained at the plasma interface. Plasma (the upper layer) was carefully removed to prevent disturbance of the buffy coat. The latter fraction rich in lymphocytes was recovered with a pasteur pipette and washed twice with RPMI™ 1640 medium by centrifugation, for 10 min, at 250×g. The final pellet was suspended in fresh RPMI™ 1640 medium supplemented with 2 mM L-glutamine, 10% foetal bovine serum inactivated at 56° C. for 30 min, and antibiotics: penicillin […], streptomucin 100 ug/ml and amphotericin 2.5 ug/ml. Cells were counted with the hemacytometer. […] The cell preparation named PBL (for peripheral blood lymphocyte) was immediately used for NTPDase assays and for mitogenic responses to stimulators.
Prior to the assays, human normal lymphocytes as well as leukemic cell lines, were washed three times with phosphate-free saline in 95 mM NaCl, 1 mM CaCl2, 2 mM MgCl2 and 45 mM Tris —HCl buffer (pH 7.4). Enzyme assays were carried out at 37° C. in 1 ml of the following assay medium: 95 mM NaCl, 5 mM KCl, 1 mM CaCl2, 2 mM MgCl2, 5 mM glucose, 0.05% BSA, 5 mM tetramisole and 45 mM Tris-HCl (pH 7.5). The reaction was started by adding the substrate (200 uM of ATP or ADP) and stopped with 250 ul of the Malachite green reagent. Controls were run with the enzyme added after the Malachite green reagent. Where indicated, 10 mM sodium azide (NaN3) or 1 mM, 5 mM and 10 mM of BGO 136 were added directly to the assay mixture. Inorganic phosphate was estimated according to Baykov et al.^(1) and enzyme activity was either expressed as nmoles of Pi released/min/mg of protein which corresponds to mUnits^(2) or as nmoles Pi/min/10^6 cells. Where indicated, lymphoid cells were lysed by three freeze thaw cycles in saline buffer and protein was measured with the method of Bradford using bovine serum albumin as a standard (3).

The subject of series [3] is human peripheral blood lymphocytes (PBL). The experiment in a line: Mitogen stimulation and proliferation assay (3H-thymidine uptake). The following applies: for lymphocytic activity including proliferation and humoral response (in words): normal T lymphocyte. The series is classed as cell-based. As for the experimental part:
A thymidine uptake assay was used to evaluate the effect of […] inhibitors on the proliferative activity of normal lymphocytes. Cell suspensions of fresh human peripheral blood lymphocytes (PBL) were resuspended in RPMITM 1640 medium supplemented with 10% foetal bovine serum at a concentration of 2×10^6/ml. Aliquots of […] were plated on a […] (96-well) and stimulated with 10 ug/ml of (Con-A) or 40 ug/ml of (LPSTM) at a final volume of 0.2 ml/well. ConATM and LPSTM were used to stimulate preferentially T cells and B cells, respectively. […] After an additional a 4 h incubation at 37° C., cells were collected with a cell harvester and ^3H thymidine incorporation was measured in triplicate samples by liquid scintillation counting.

In series [4] the test system is mice. The experiment in a line: Graft vs. host reaction, spleen weight after cell transplant (Bundick model). Format: in vivo. The following applies: for splenomegaly: spleen weighed 21 days after injection of parents' spleen cells; for suppression %: suppression of splenomegaly, no treatment = 100, positive = 0. As to the method: Mice were injected their parents' spleen cells. 21 days later, their spleen was weighed. Activation of Th2 (T helper cells) cells. The treatment groups are cyclosporin, BGO, and AMP. […] The “No treatment group” is constituted of normal mice. The “positive” group is constituted of mice having undergone spleen tissue transplantation and having been injected with the carrier only (PBS™) without inhibitor. […] The spleen of all mice was then removed and weighed. The weigh of treated mice was then compared with that of the “No treatment” mice.

In series [5] the target is NTPDase. To be noted: ATP and ADP as substrate; read-out: Ki (mixed type of inhibition); cited from earlier work.

Structures are written as SMILES. “Also recorded” adds a separate entry of the source. Where two headings read alike, the source gives them in different places. Some results are limits rather than exact numbers.

In the case of `O.O=C([O-])c1ccccc1-c1c2cc(I)c(=O)c(I)c-2oc2c(I)c([O-])c(I)cc12.[Na+].[Na+]` [erythrosin B], the “levels of antibodies to albumin (in words)” value in the series on mice [1] (especially with multiple injections (group DM)) was “significant decrease”. Also, the “Jurkat cell proliferation (in words)” value with Jurkat cells was “marked reduction of cell proliferation”. Besides, the “effect on NTPDase activity (in words)” value with NTPDase [2] is “dose-dependent inhibition; also recorded: decrease the NTPDase activity”. The “proliferation induced by ConA (in words)” value in series [3] (ConA-stimulated PBL) is recorded as “dose-dependent inhibition”. The “lymphocytic activity including proliferation and humoral response (in words)” value in series [3] is listed as “decrease”.

For the compound `Nc1ncnc2c1ncn2[C@@H]1O[C@H](COP(=O)(O)OP(=O)(O)CP(=O)(O)O)[C@@H](O)[C@H]1O` [β-γ-Me ATP, beta-gamma methylene ATP], the “Jurkat cell proliferation (in words)” value in the series with Jurkat cells is reported as “less pronounced but significant effect”. For the same compound, the “effect on NTPDase activity (in words)” value in the series on NTPDase [2] is reported as “inhibited in a dose-dependent manner; also recorded: decrease the NTPDase activity”. The “proliferation induced by ConA (in words)” value in series [3] (ConA-stimulated PBL) is reported as “reduced cell proliferation”. For the same compound, the “lymphocytic activity including proliferation and humoral response (in words)” value in series [3] was “decrease”.

For `CCCCSc1nc2c(N)ncnc2n1[C@@H]1O[C@H](COP(=O)(O)O)C(O)[C@@H]1O` (stereo partly drawn) [8 BUS-AMP], the entries for the “effect on NTPDase activity (in words)” value in the series on NTPDase [2] and with NTPDase [2] (listed as 8 Bus AMP) were “pronounced dose-dependent inhibition” and “decrease the NTPDase activity”, respectively. The “lymphocytic activity including proliferation and humoral response (in words)” value in series [3] is recorded as “decrease”.

With `CCCCSc1nc2c(N)ncnc2n1C1OC(COP(=O)(O)OP(=O)(O)OP(=O)(O)O)C(O)C1O` (stereo not drawn) [8 BUS-ATP], in the series with Jurkat cells, the “Jurkat cell proliferation (in words)” value is listed as “marked reduction of cell proliferation”. Moreover, the “effect on NTPDase activity (in words)” value in the series with NTPDase [2] is recorded as “decrease the NTPDase activity”. Further, the “proliferation induced by ConA (in words)” value in series [3] (ConA-stimulated PBL) was “reduced cell proliferation”. In series [3], the “lymphocytic activity including proliferation and humoral response (in words)” value is recorded as “decrease”.

In the case of `Nc1ncnc2c1ncn2[C@@H]1O[C@H](COP(=O)(O)O)[C@@H](O)[C@H]1O` [AMP, adenosine 5′-monophosphate], the “Jurkat cell proliferation (in words)” value in the series on Jurkat cells was “marked reduction of cell proliferation”. Also, in the series on mice [4], the splenomegaly was 6.7 ± 0.82 mg/g of b. weight and the suppression % amounted to 8%.

`O=S(=O)(O)c1ccc2c(O)cc(S(=O)(=O)O)cc2c1` [BGO 136, 1-hydroxynaphtalene-3,6 disulfonic acid]: at NTPDase [5], the Ki is 380 µM. Moreover, in the series on mice [1] (during administration (two months)), the “tolerance: toxic or allergic reactions” value was “No toxic or allergic reactions were observed”. In addition, the “effect on levels of albumin antibodies (in words)” value in the series with mice [1] (repeated injections (group DM) versus single dose) is on record as “even more efficient”. Also, the “reduction of levels of albumin antibodies” value in the series with mice [1] (single dose 800 mM i.p.) is at most 50%. Also, in the series on Jurkat cells, the “Jurkat cell proliferation (in words)” value is given as “marked reduction of cell proliferation”. In addition, in the series with mice [4], the “efficiency in preventing spleen growth following transplantation, versus cyclosporine” value was “more efficient than cyclosporine”; the splenomegaly is reported as 4.3 ± 0.29 mg/g of b. weight; the suppression % came out at 56%. In addition, the “transplanted spleens versus positive control mice (in words)” value in the series on mice [4] (ANOVA) was “significantly smaller”. Further, the “effect on NTPDase activity (in words)” value with NTPDase [2] was “decrease the NTPDase activity; also recorded: dose-dependent inhibition”. In the series on NTPDase [2] (5 mM), the “inhibition of ATPase and ADPase activities” value stood at 40%. The “inhibition of ATPase and ADPase activities” value with NTPDase [2] (10 mM) is given as at least 50%. For the same compound, in series [3] (ConA-stimulated PBL), the “proliferation induced by ConA (in words)” value is given as “inhibited in a dose-dependent manner”. In addition, in series [3] (ConA-stimulated PBL, 10 mM), the “proliferation induced by ConA, percent of the positive control values” was “about 10%”. Further, in series [3] (LPS-stimulated PBL), the “inhibition of LPS-induced proliferation (in words)” value is “much less pronounced”. The “lymphocytic activity including proliferation and humoral response (in words)” value in series [3] is given as “decrease”. Besides, in series [3] (unstimulated PBL), the “proliferation of non-activated lymphocytes (3H-Thymidine incorporation in DNA)” value is listed as “did not affect”.

Values taken from patent publication US20050164306A1, “Methods for screening for a compound useful in the treatment or prevention of lymphocytic disorders, for inhibiting lymphocite activity and preventing or treating lymphocytic disorders” (priority 2002, published 2005).
